Reference: patent US20260060907A1, “GADUSOL-CONTAINING SUNSCREEN FORMULATIONS” (ARCAEA, LLC, priority 2022, published 2026)

Assays:
[1] = In vivo SPF determination (FDA 21 CFR 201.327 SPF test procedure); set-up: species or system human
Protocol: An in vivo SPF determination was conducted according to FDA, 21 CFR Sec. 201.327, subpart (i), SPF Test Procedure, Sunscreen Drug Products for Over-the-Counter Human Use, Final Monograph, Federal Register, Vol. 76, No. 117, Jun. 17, 2011, the disclosure of which is incorporated herein in its entirety by this reference. Each in vivo test for a sunscreen formulation was tested on three different subjects.
For subject enrollment, the test subjects reported to the testing laboratory and received a complete explanation of the study procedures. Those who participated signed a written, witnessed consent form, and a permission to release personal health information form and provided a brief medical history. The technician did a final examination of the subject's back, between the belt-line and shoulder blades and determined their suitability to participate in this study.
A Xenon Arc Solar Simulator lamp, which has a continuous light spectrum in the UVA and UVB range (290-400 nanometers) was utilized for the in vivo light source. The spectral output of the solar simulator was filtered so that it meets the spectral output requirements for testing Sunscreen Drug Products for over-the-counter human use; FDA Final Monograph, 21 CFR Part 201.327 (i)(1), UV Source, Federal Register, Vol. 76, No. 117, Jun. 17, 2011 and the International Sun Protection Factor (SPF) Test Method, May 2006, the disclosure of which is incorporated herein in its entirety by this reference.
For a baseline value, a series of 5 UV radiation doses expressed as Joules/square meter, increasing in 25% increments, was administered to two unprotected separate locations on each test subject's back, just below the shoulder blades and above the belt-line, to determine the initial unprotected MED (MEDu).
The MEDu was administered in the following 5 dose series, with X representing the amount of UV energy projected to produce the test subject's MEDu (Table C).
On Day 2, subjects returned to the testing laboratory within 16 to 24 hours following completion of the MEDu doses for evaluation of their responses, and to determine each subject's unprotected MED (MEDu). A subject's Minimal Erythemal Dose (MED) was the quantity of erythema effective energy, or dose corresponding to the first site that produced the first unambiguous erythema reaction with well-defined borders. The following grading scale used in this study for determining a MED (+) response. • − No perceptible erythemal response • ? […]
MEDp UV Dose was administered by the technician via a series of 5 UV radiation doses expressed as Joules/square meter, as specified in FDA, 21 CFR, Sec. […]

[2] = In vitro SPF determination on VitroSkin substrate (Labsphere UV-1000, absorbance 290-400 nm); type: physicochemical
Protocol: SPF was also evaluated using an in vitro method that utilizes a synthetic/simulated skin as a test substrate. In this regard, VitroSkin® is an advanced testing substrate that effectively mimics the surface properties of human skin. It has been formulated to have topography, pH, critical surface tension, chemical reactivity and ionic strength that is similar to human skin. The procedure for in vitro testing was conducted according to a standard protocol. For testing, the test product was applied in a known amount to the substrate at an application density of 2 mg/cm^2. The in vitro SPF scores were determined using a Labsphere UV-1000 Ultraviolet Transmittance Analyzer. Spectral scans of absorbance of the artificial skin treated with a sample sunscreen formulation were performed in the UV region of 290-400 nm. The in vitro SPF was then calculated using the absorbance scan results. At least 5 in vitro SPF values were recorded for each example formulation and the averages calculated for reporting.
In another example, gadusol was tested by the in vitro method using the Vitroskin substrate in the methodology discussed above. The COS1 formulation having 0.0 and 0.5% (w/w) gadusol and the COS2 formulations were tested with 0, 0.25, 0.5% (w/w) gadusol.

Vero E6 fibroblasts = type: cell-based
From the text: (§1) The amount of gadusol incorporated to provide the intended in vivo sunscreen SPF boosting activity can be from about 0.25, 0.50, 0.75, 1.0, 1.25, 1.50, 1.75, or 2.0% (w/w) in the sunscreen formulation that includes a physical/inorganic sunscreen active material, where any value can form an upper or lower endpoint, as appropriate. Still further, the amount of gadusol in the sunscreen formulation can be from about 0.25 to 2.0% (w/w), or from about 0.5 to 1.0% (w/w). In these, and possibly other amounts, gadusol suitably can provide a safe and effective sunscreen boosting effect when combined with sunscreen active ingredients. […] To summarize these safety tests, the cellular toxicity of gadusol was compared to that of a common sunscreen ingredient, oxybenzone. Vero E6 fibroblasts were used to evaluate toxicity. […] Toxicity towards E. coli was also not found.

Ames Test = type: cell-based
From the text: as §1

Comet assay = type: cell-based
From the text: as §1

E. coli = test: Toxicity towards E. coli; type: cell-based
From the text: as §1

[3] = Stability of aqueous gadusol under acidic conditions (spectrophotometric at 296 nm); type: physicochemical; conditions: after 90 days at pH 2.5
Protocol: (§2) Yet further, the inventors have determined that the stability of aqueous gadusol can be improved when stored under acidic conditions. For example, 90% gadusol activity can be retained after 90 days at pH 2.5, where the concentration of gadusol is determined spectrophotometrically at 296 nm where it has an extinction coefficient of 21,800 M^−1 cm^−1. A standardized concentration curve can be used to determine an amount of gadusol in a volume sampled from a test solution at various time periods. Therefore, storage under acidic conditions may be useful for stabilizing gadusol generally, e.g., prior to introduction into a topical formulation. Combining gadusol with another antioxidant may be useful for extending the shelf life or stability of gadusol in a topical formulation.

[4] = UV absorbance of the compounds; type: physicochemical; conditions: at 296 nm
Protocol: as §2

[5] = Folin-Ciocalteu antioxidant capacity; type: biochemical; conditions: concentrations ranging from about 0.3 to 10 mg/ml
erythrocytes = test: Cell-based antioxidant protection in erythrocytes (CAP-e) assay; conditions: for lysis of the cells: highest dose (3.3 mg/ml), erythrocytes
Protocol: The cell-based antioxidant protection in erythrocytes (CAP-e) assay (Honzel et. al., 2008, and Jensen GS. Cell-based antioxidant protection assay, also disclosed in U.S. Pat. No. 8,465,988, incorporated herein in its entirety by this reference) was used. This testing was selected to measure antioxidant power but, in addition, the method ensures that the antioxidant agent crosses the cell's lipid boundary layer so that only intracytoplasmic activity is measured. […] The tested concentrations for both gadusol and the Porphyra-334 ranged from 0.001 to 3.33 mg/mL.

## COC1=C(O)CC(O)(CO)C(O)C1=O (stereo not shown) [gadusol]
[1]; 0.5% gadusol (w/w) with 10% ZnO
  in vivo SPF, times the SPF conferred by 10% ZnO alone: about 1.35 times
[1]; 0.75% gadusol (w/w) with 10% ZnO
  in vivo SPF, times the SPF conferred by 10% ZnO alone: ~1.51 times
[1]; 1.0% gadusol (w/w) with 10% ZnO
  in vivo SPF, times the SPF conferred by 10% ZnO alone: ~2.0 times
[1]; gadusol 0.5 to 1% (w/w) in formulation containing 10% ZnO
  SPF boost: 135 to 200%
[2]; 0.5% (w/w) gadusol
  greater in vitro SPF when added to a composition containing 10% ZnO: ~50%
[2]; 0.5% gadusol, from about 290 to about 325 nm, FIG. 6
  in vitro absorbance on addition to a 10% ZnO sunscreen formulation: significantly more absorbance
[2]; activity of the formulation matrix (1.1) subtracted
  in vitro SPF activity of gadusol by itself: 2.5-2.8 SPF units
Vero E6 fibroblasts
  cellular toxicity compared to oxybenzone: less toxic than oxybenzone
Ames Test
  mutagenicity in the Ames Test: not to be mutagenic
Comet assay
  toxicity in the comet assay: nor was it toxic
E. coli
  Toxicity towards E. coli: not found
[3]
  gadusol activity retained: 90%
[4]
  extinction coefficient: 21,800 M^−1 cm^−1
[5]
  antioxidant power (Folin-Ciocalteu): substantially equivalent to a mycosporine compound from “nori” seaweed
erythrocytes; at 0.133 mg/ml
  antioxidant activity (CAP-e): Some in vivo antioxidant activity was seen
erythrocytes; at about 1 mg/ml
  antioxidant activity (CAP-e) compared with Porphyra-334: significantly more active antioxidant
erythrocytes
  lysis of the cells: caused some lysis of the cells

## COC1=C(NCC(=O)O)C[C@@](O)(CO)CC1=N[C@H](C(=O)O)[C@@H](C)O [Porphyra-334, reference compound]
erythrocytes; gadusol and Porphyra-334 combined
  effect on the protective action of gadusol (CAP-e): did not interfere with the protective action of the gadusol
erythrocytes
  lysis of the cells: caused some lysis of the cells
